Experiments:
Type in all cases: functional
[1] = system: KM12; experiment: Growth inhibition of human KM12 cells assessed as cell growth at 5X10'-9 M after 48 hrs by sulforhodamine B assay; conditions: KM12, 48 h, read-out: Activity
[2] = system: LOX IMVI; experiment: Growth inhibition of human LOXIMVI cells assessed as cell growth at 5X10'-5 M after 48 hrs by sulforhodamine B assay; conditions: read-out: Activity
[3] = system: SF-268; experiment: Growth inhibition of human SF268 cells assessed as cell growth at 5X10'-5 M after 48 hrs by sulforhodamine B assay; conditions: SF-268, 48 h, read-out: Activity
[4] = system: COLO 205; experiment: Growth inhibition of human COLO205 cells assessed as cell growth at 5X10'-5 M after 48 hrs by sulforhodamine B assay; conditions: COLO 205, 48 h, read-out: Activity
[5] = system: SR; experiment: Growth inhibition of human SR cells assessed as cell growth at 5X10'-5 M after 48 hrs by sulforhodamine B assay; conditions: read-out: Activity
[6] = system: T47D; experiment: Growth inhibition of human T47D cells assessed as cell growth at 5X10'-6 M after 48 hrs by sulforhodamine B assay; conditions: read-out: Activity
[7] = system: 786-0; experiment: Growth inhibition of human 786-0 cells assessed as cell growth at 5X10'-6 M after 48 hrs by sulforhodamine B assay; conditions: 786-0, 48 h, read-out: Activity
[8] = system: COLO 205; experiment: Growth inhibition of human COLO205 cells assessed as cell growth at 5X10'-9 M after 48 hrs by sulforhodamine B assay; conditions: COLO 205, 48 h, read-out: Activity
[9] = system: NCI-H522; experiment: Growth inhibition of human NCI-H522 cells assessed as cell growth at 5X10'-9 M after 48 hrs by sulforhodamine B assay; conditions: NCI-H522, 48 h, read-out: Activity
[10] = system: SNB-19; experiment: Growth inhibition of human SNB19 cells assessed as cell growth at 5X10'-6 M after 48 hrs by sulforhodamine B assay; conditions: SNB-19, 48 h, read-out: Activity
[11] = system: A549; experiment: Growth inhibition of human A549/ATCC cells assessed as cell growth at 5X10'-6 M after 48 hrs by sulforhodamine B assay; conditions: A549, 48 h, read-out: Activity
[12] = system: RPMI-8226; experiment: Growth inhibition of human RPMI8226 cells assessed as cell growth at 5X10'-6 M after 48 hrs by sulforhodamine B assay; conditions: RPMI-8226, 48 h, read-out: Activity
[13] = system: MDA-MB-468; experiment: Growth inhibition of human MDA-MB-468 cells assessed as cell growth at 5X10'-7 M after 48 hrs by sulforhodamine B assay; conditions: MDA-MB-468, 48 h, read-out: Activity
[14] = system: RXF 393; experiment: Growth inhibition of human RXF393 cells assessed as cell growth at 5X10'-7 M after 48 hrs by sulforhodamine B assay; conditions: RXF 393, 48 h, read-out: Activity
[15] = system: ACHN; experiment: Growth inhibition of human ACHN cells assessed as cell growth at 5X10'-7 M after 48 hrs by sulforhodamine B assay; conditions: read-out: Activity
[16] = system: SK-MEL-5; experiment: Growth inhibition of human SK-MEL-5 cells assessed as cell growth at 5X10'-7 M after 48 hrs by sulforhodamine B assay; conditions: SK-MEL-5, 48 h, read-out: Activity
[17] = system: M14; experiment: Growth inhibition of human M14 cells assessed as cell growth at 5X10'-7 M after 48 hrs by sulforhodamine B assay; conditions: M14, 48 h, read-out: Activity
[18] = system: U-251; experiment: Growth inhibition of human U251 cells assessed as cell growth at 5X10'-7 M after 48 hrs by sulforhodamine B assay; conditions: U-251, 48 h, read-out: Activity
[19] = system: COLO 205; experiment: Growth inhibition of human COLO205 cells assessed as cell growth at 5X10'-7 M after 48 hrs by sulforhodamine B assay; conditions: COLO 205, 48 h, read-out: Activity
[20] = system: NCI-H522; experiment: Growth inhibition of human NCI-H522 cells assessed as cell growth at 5X10'-7 M after 48 hrs by sulforhodamine B assay; conditions: NCI-H522, 48 h, read-out: Activity
[21] = system: MOLT-4; experiment: Growth inhibition of human MOLT4 cells assessed as cell growth at 5X10'-7 M after 48 hrs by sulforhodamine B assay; conditions: MOLT-4, 48 h, read-out: Activity
[22] = system: K562; experiment: Growth inhibition of human K562 cells assessed as cell growth at 5X10'-7 M after 48 hrs by sulforhodamine B assay; conditions: K562, 48 h, read-out: Activity
[23] = system: ACHN; experiment: Growth inhibition of human ACHN cells assessed as cell growth at 5X10'-8 M after 48 hrs by sulforhodamine B assay; conditions: read-out: Activity
[24] = system: IGROV-1; experiment: Growth inhibition of human IGROV1 cells assessed as cell growth at 5X10'-8 M after 48 hrs by sulforhodamine B assay; conditions: IGROV-1, 48 h, read-out: Activity
[25] = system: SK-MEL-28; experiment: Growth inhibition of human SK-MEL-28 cells assessed as cell growth at 5X10'-8 M after 48 hrs by sulforhodamine B assay; conditions: SK-MEL-28, 48 h, read-out: Activity
[26] = system: Malme-3M; experiment: Growth inhibition of human MALME-3M cells assessed as cell growth at 5X10'-8 M after 48 hrs by sulforhodamine B assay; conditions: read-out: Activity
[27] = system: T47D; experiment: Growth inhibition of human T47D cells assessed as cell growth at 5X10'-5 M after 48 hrs by sulforhodamine B assay; conditions: read-out: Activity
[28] = system: MDA-MB-231; experiment: Growth inhibition of human MDA-MB-231 cells assessed as cell growth at 5X10'-5 M after 48 hrs by sulforhodamine B assay; conditions: MDA-MB-231, 48 h, read-out: Activity
[29] = system: SK-OV-3; experiment: Growth inhibition of human SKOV3 cells assessed as cell growth at 5X10'-5 M after 48 hrs by sulforhodamine B assay; conditions: SK-OV-3, 48 h, read-out: Activity
[30] = system: OVCAR-4; experiment: Growth inhibition of human OVCAR4 cells assessed as cell growth at 5X10'-5 M after 48 hrs by sulforhodamine B assay; conditions: OVCAR-4, 48 h, read-out: Activity
[31] = system: IGROV-1; experiment: Growth inhibition of human IGROV1 cells assessed as cell growth at 5X10'-5 M after 48 hrs by sulforhodamine B assay; conditions: IGROV-1, 48 h, read-out: Activity
[32] = Growth inhibition of human HCC2998 cells assessed as cell growth at 5X10'-8 M after 48 hrs by sulforhodamine B assay; conditions: HCC 2998, 48 h, read-out: Activity
[33] = system: NCI-H226; experiment: Growth inhibition of human NCI-H226 cells assessed as cell growth at 5X10'-8 M after 48 hrs by sulforhodamine B assay; conditions: NCI-H226, 48 h, read-out: Activity
[34] = system: MDA-MB-468; experiment: Growth inhibition of human MDA-MB-468 cells assessed as cell growth at 5X10'-9 M after 48 hrs by sulforhodamine B assay; conditions: MDA-MB-468, 48 h, read-out: Activity
[35] = system: PC-3; experiment: Growth inhibition of human PC3 cells assessed as cell growth at 5X10'-9 M after 48 hrs by sulforhodamine B assay; conditions: PC-3, 48 h, read-out: Activity
[36] = system: SK-OV-3; experiment: Growth inhibition of human SKOV3 cells assessed as cell growth at 5X10'-9 M after 48 hrs by sulforhodamine B assay; conditions: SK-OV-3, 48 h, read-out: Activity
[37] = system: M14; experiment: Growth inhibition of human M14 cells assessed as cell growth at 5X10'-9 M after 48 hrs by sulforhodamine B assay; conditions: M14, 48 h, read-out: Activity

Structure (SMILES)	growth at 0.005 µM [1]	growth at 50 µM [2]	growth at 50 µM [3]	growth at 50 µM [4]	growth at 50 µM [5]	growth at 5 µM [6]	growth at 5 µM [7]	growth at 0.005 µM [8]	growth at 0.005 µM [9]	growth at 5 µM [10]	growth at 5 µM [11]	growth at 5 µM [12]	growth at 0.5 µM [13]	growth at 0.5 µM [14]	growth at 0.5 µM [15]	growth at 0.5 µM [16]	growth at 0.5 µM [17]	growth at 0.5 µM [18]	growth at 0.5 µM [19]	growth at 0.5 µM [20]	other results
COc1cc(-c2nn(-c3cccc(NC(=O)Nc4cc(C(F)(F)F)cc(C(F)(F)F)c4)c3)cc2-c2ccncc2)ccc1Cl	103%	-86%	-43%	-95%	-5%	10%	-60%	107%	102%	-9%	-31%	3%	41%	82%	50%	74%	71%	60%	93%	60%	growth at 0.5 µM [21]: 77%; growth at 0.5 µM [22]: 42%; growth at 0.05 µM [23]: 100%; growth at 0.05 µM [24]: 105%; growth at 0.05 µM [25]: 97%; growth at 0.05 µM [26]: 104%; growth at 50 µM [27]: 5%; growth at 50 µM [28]: -85%; growth at 50 µM [29]: -62%; growth at 50 µM [30]: -21%; growth at 50 µM [31]: -54%; growth at 0.05 µM [32]: 105%; growth at 0.05 µM [33]: 90%; growth at 0.005 µM [34]: 90%; growth at 0.005 µM [35]: 92%; growth at 0.005 µM [36]: 102%; growth at 0.005 µM [37]: 105%
COc1cc(-c2nn(-c3cccc(NC(=O)Nc4ccc(Cl)c(Cl)c4)c3)cc2-c2ccncc2)ccc1Cl	103%	-45%	-5%	-94%	-26%	9%	-5%	109%	101%	21%	3%	-10%	55%	76%	70%	78%	78%	72%	102%	68%	growth at 0.5 µM [21]: 78%; growth at 0.5 µM [22]: 65%; growth at 0.05 µM [23]: 98%; growth at 0.05 µM [24]: 103%; growth at 0.05 µM [25]: 95%; growth at 0.05 µM [26]: 109%; growth at 50 µM [27]: 9%; growth at 50 µM [28]: -54%; growth at 50 µM [29]: 6%; growth at 50 µM [30]: 5%; growth at 50 µM [31]: -26%; growth at 0.05 µM [32]: 100%; growth at 0.05 µM [33]: 92%; growth at 0.005 µM [34]: 94%; growth at 0.005 µM [35]: 99%; growth at 0.005 µM [36]: 104%; growth at 0.005 µM [37]: 100%
